Test results as given in patent US20210206770A1, “Co-Crystal of an Orally Available Janus Kinase Inhibitor” (Sandoz AG, priority 2017, published 2021).

Key:
[1] = Dissolution testing, Experiment 1: stirring in water at room temperature; assay type: physicochemical; details: 5 mg Form A or same molar amount of co-crystal stirred at room temperature in 100 ml water
Description: Experiment 1 clearly indicated significant and faster dissolution of the barcitinib lactic acid co-crystal of the invention compared to pure cristallin baritinib form A. However, no quantitative data could be derived from this setup.

[2] = Dissolution testing, Experiment 2: photometric (310 nm) dissolution in phosphate buffer pH 6.8; assay type: physicochemical; details: 50 mL phosphate buffer pH 6.8, 0.01% Tween 80, 37° C.
Protocol: We used this to quantify baricitinib concentrations. Light absorption was measured with a Shimadzu UV-1800 double beam photometer at 310 nm in a lcm quartz glass cuvette.
To counterbalance the acidifying effect of the lactic acid from the barcitinib lactic acid co-crystal, the experiments were performed in a phosphate buffer solution at a constant pH of 6.8 ([…]; 0.01 mol/L). Furthermore, 0.01% Tween 80 was added to the buffer solution in order to avoid potential agglomeration during the dissolution test.
Experiment 2: 20 mg of crystalline baricitinib free base Form A or 24.85 mg of the baricitinib lactic acid co-crystal of the present invention were stirred in a closed vessel in 50 mL of the buffer solution at 37° C. After 1, 5, 10, 15, 20, 30, 45 and 75 minutes filtered samples of the suspension were taken and diluted 1:4 with buffer solution to reach an absorption value within the calibration curve.

[3] = Differential scanning calorimetry (thermal stability); assay type: physicochemical; details: heating rate 10 K/min, up to melting at about 168-170° C.
Protocol: The baricitinib lactic acid co-crystal according to the present invention was investigated by DSC, which was performed with a DSC 7 (Perkin-Elmer, Norwalk, Conn., USA) using a Pyris 2.0 software. Approximately 4±0.0005 mg sample (using a UM3 ultramicrobalance, Mettler, Greifensee, CH) were weighed into Al-Pans (25 μl) and sealed with a cover, which was perforated by a needle. Dry nitrogen was used as the purge gas (purge: 20 ml/min). Heating rate: 10 K/min.

[4] = EPAR, cited from earlier work

concentration of dissolved baricitinib at 1 minute compared to baricitinib free base form A ([2]; 1 minute)	dissolution rate compared to baricitinib free base form A ([2]; FIG. 7)	Compound	dissolution in water [1]	thermal stability (DSC) [3]	solubility in 0.1 N HCl ([4]; 0.1 N HCl)	solubility in water ([4]; water)
		CCS(=O)(=O)N1CC(CC#N)(n2cc(-c3ncnc4[nH]ccc34)cn2)C1 [baricitinib free base Form A, 2-[1-(Ethylsulfonyl)-3-[4-(7H-pyrrolo[2,3-d]pyrimidin-4-yl)-1H-pyrazol-1-yl]azetidin-3-yl]acetonitrile, reference compound]	no detectable dissolution			
three time higher	dissolved more quickly	CCS(=O)(=O)N1CC(CC#N)(n2cc(-c3ncnc4[nH]ccc34)cn2)C1 [baricitinib lactic acid co-crystal]	a detectable and significant amount dissolved within minutes	neither phase changes nor desolvation events are detectable until the sample melts		
		CCS(=O)(=O)N1CC(CC#N)(n2cc(-c3ncnc4[nH]ccc34)cn2)C1 [baricitinib, 2-[1-(Ethylsulfonyl)-3-[4-(7H-pyrrolo[2,3-d]pyrimidin-4-yl)-1H-pyrazol-1-yl]azetidin-3-yl]acetonitrile]			only slightly soluble	practically insoluble
